Laboratory results published in patent US20230190725A1, “MEK INHIBITORS FOR CORNEAL SCARRING AND NEOVASCULARIZATION” (THE BOARD OF TRUSTEES OF THE UNIVERSITY OF ILLINOIS, priority 2019, published 2023).
Where two headings read alike, the source gives them in different places.

Experiments:
PAX6 [1] = assay: PAX6 mRNA (RT-PCR) and protein (SDS-PAGE vs GAPDH) expression in human corneal epithelial cells; type: cell-based; details: for PAX6 protein expression: human cornea epithelium cells, 48 hours of treatment
Experimental: For example, PD0325901 (PD) was tested in human corneal epithelial cells (HCEC).
HCEC were treated with a PD composition comprising 1 μM PD dissolved in culture media for up to 120 hours. PAX6 protein levels were detected by SDS-PAGE and quantified by comparing the levels of GAPDH protein (FIG. 1A). In the same treated corneal epithelial cells, PAX6 mRNA expression was measured by RT-PCR using three different primers. (FIG. 1B).
In summary, the MEK inhibition increased PAX6 mRNA and protein expressions in human corneal epithelial cells (2.7±0.2 & 3.0±0.3 folds).

PAX6 [2] = assay: PAX6 mRNA measurement in murine PAX6 heterozygote corneal MSCs; type: cell-based; details: n=3
Source text: Significance determined by t test. *P<0.05. Ctrl: control. RX: treatment.

ERK1 and ERK2 = assay: Western blot of ERK1/ERK2 in human corneal epithelial cells; type: cell-based
Source text: Western blot analysis of human corneal epithelial cells confirmed that this MEK inhibitor effectively and specifically suppresses ERK1 and ERK2, while having minimal effect on p38 as the control (FIG. 10).

mouse model of Aniridia = type: in vivo; details: for Corneal stromal thickness: P30, OCT, central cornea, WT 50.5±1.1 μm; for PAX6 protein expression in corneas: P30 PAX6 staining, compared to control; for corneal whole mount CK12 staining intensity: P90, Normal CK12 intensity: 100%; for Corneal scarring (ratio of scar area to total corneal area): slit lamp images
Experimental: Aniridia is a human condition with PAX6 mutation that develops corneal scarring and neovascularization. The MEK pathway is known to inhibit the PAX6 pathway, therefore it was investigated whether MEK inhibitors can indirectly stimulate PAX6 production. MEK inhibitors were tested in vivo, in a mouse model of Aniridia which allowed for investigation corneal opacification, scarring and neovascularization. Oral and topical formulations were optimized using an exemplary MEK inhibitor, such as PD0325901 (PD).
Aniridia mice were treated with or topical PD composition or vehicle, from postnatal day P5 to P30. Wild type (WT) littermates were used as normal reference. OCT and slit lamp images were used to compare the corneal epithelial/stromal thickness, clarity and scarring. H&E and immunostaining with PAX6 and Cytokeratin (CK)12 were used to compare the morphology, protein expression and differentiation. P30 PAX6 staining confirmed increase in PAX6 protein expression in corneas with both oral (2.3±0.2 folds) and topical (2.5±0.1 folds) methods (P<0.001) (oral data not shown, topical data FIG. 3A).
FIG. 2 provides the data from the topical administration of PD compositions. […] The area of scarring was measured manually based on the corneal opacification in the scar area on the slit lamp images using ImageJ (NIH). The ratio of the scar area to total corneal area was reported as a percentage. […] These measurements show the promotion of a more normal differentiation of the corneal epithelium and stroma (FIG. 2). Corneal epithelial and stromal thicknesses were measured at the central cornea and outside the scar area via OCT imaging.
Hematoxylin and eosin (H&E) staining was carried out on Aniridia cornea tissue. […] FIG. 2 provides representative H&E staining of frozen sections from day 30).
Immunohistochemical staining of the mice eyes for DAPI, PAX6 and CK12 (a marker for normal corneal epithelium) was also carried out.

Aniridia mouse model = assay: P90 electroretinography (ERG) in Aniridia mouse model; type: in vivo
Experimental: Retina function was assessed in the Aniridia mouse model using P90 electroretinography (ERG). Aniridia mice were treated with the PD composition described in Example 1 or vehicle.

[3] = tested on: epithelial and limbal stem cell injury model; assay: Corneal injury model with limbal stem cell deficiency; type: in vivo, mouse; details: up to 1 month after injury
Experimental: The formulation was tested in an epithelial and limbal stem cell injury model, in which we injured the epithelium of the cornea up to the limbal area, creating a severe scar forming wound with limbal stem cell deficiency.
The PD composition provided in Example 1 was tested in an injury model, in which we injured the epithelium of the cornea up to the limbal area, creating a severe scar forming wound with limbal stem cell deficiency. Using an alger brush, the corneal epithelium was scraped under general anesthesia from limbus to limbus to create a limbal stem cell deficiency model. Following this injury, corneal limbal stem cell deficiency happens, similar to human disease, and the cornea becomes scarred, opacified and vascularized by time.

[4] = human corneal epithelial cells, n=3, FIG. 1

COc1cc(F)c(F)c(Nc2ccc(I)cc2F)c1NS(=O)(=O)C1(C[C@H](O)CO)CC1 [Refametinib, refametinib]
PAX6 protein expression (PAX6 [1]): induced PAX6 protein expression
PAX6 protein measurement (PAX6 [1]; [4]): can induce PAX6 expression

O=C(c1ccc(F)c(F)c1Nc1ccc(I)cc1F)N1CC(O)([C@@H]2CCCCN2)C1 [Cobimetinib]
PAX6 protein expression (PAX6 [1]): induced PAX6 protein expression
PAX6 protein measurement (PAX6 [1]; [4]): can induce PAX6 expression

O=C(NOC[C@H](O)CO)c1ccc(F)c(F)c1Nc1ccc(I)cc1F [PD0325901, Mirdametinib]
PAX6 mRNA measurement (PAX6 [1]; [4]): increase in PAX6 expression
PAX6 protein measurement (PAX6 [1]; [4]): increase in PAX6 expression
PAX6 mRNA measurement (PAX6 [2]): increase in PAX6 expression
ERK1/ERK2 inhibition (ERK1 and ERK2): specific ERK1/ERK2 inhibition
H&E histological pattern of cornea (mouse model of Aniridia; frozen sections, day 30): more similar histological pattern to normal
toxicity of optimized formulation and dosage (mouse model of Aniridia; mouse, in vivo, po): no toxicity
Corneal stromal thickness (mouse model of Aniridia; oral): 24.7±4.1 μm
PAX6 protein expression in corneas (mouse model of Aniridia; oral): 2.3±0.2 folds
corneal whole mount CK12 staining intensity (mouse model of Aniridia; oral): 64±3%
Corneal scarring (ratio of scar area to total corneal area) (mouse model of Aniridia; oral): 2.1±0.4%
Corneal stromal thickness (mouse model of Aniridia; topical): 25.5±4.7 μm
PAX6 protein expression in corneas (mouse model of Aniridia; topical): 2.5±0.1 folds
corneal whole mount CK12 staining intensity (mouse model of Aniridia; topical): 69±32%
Corneal scarring (ratio of scar area to total corneal area) (mouse model of Aniridia; topical): 2.3±0.6%
ocular/retinal function (Aniridia mouse model; P90 electroretinography, compared to the control group): significantly better ocular/retinal function
Photopic β wave (Aniridia mouse model; topical, P90 ERG): 102.1 ± 50.9
Scotopic α wave (Aniridia mouse model; topical, P90 ERG): −214.5 ± 64.1
Scotopic β wave (Aniridia mouse model; topical, P90 ERG): 244.8 ± 120.1
corneal neovascularization [3]: significantly less
corneal opacity / haziness [3]: significantly less
corneal neovascularization ([3]; listed as PD): significantly reduced
corneal opacity / haziness ([3]; listed as PD): significantly reduced
